The data set is described as follows: Human HepG2 cell viability assay in 384 well format. More on the design: dose 125 nL, time 70.5 hour; cytotoxicity at 70.5 h: concentration not given beside the values. The class given is toxicity, cell-based. To be noted: HepG2 cells, read-out: Inhibition.

The structures appear in SMILES notation.

For the molecule `CC(=O)N1CCC2(CCN(CC(C)C)C2)C1` (stereo unspecified), the cytotoxicity at 70.5 h is -5.21%. With `O=C(N1CCCC1)N1C[C@@H]2CCNC[C@@H]21` the figure was -12%; with `CCN1C(=O)C(c2ccccc2)CC12CCN(S(C)(=O)=O)CC2` (stereo unspecified), -9.88%; with `CN1CC[C@@H]2[C@@H]1CCN2Cc1ccc2c(c1)OCO2`, -9.96%. Then `Cc1cccc(C(=O)N2C[C@@H]3[C@H](CC(=O)N4CCCC4)[C@@H]3C2)n1`, with -6.1%; and `CC(=O)N1CCCC2(CCN(C(=O)c3nn(C)c4ccccc34)CC2)C1`, with 29.2%; and `Cc1ccc(CN2CC3(CCN(S(=O)(=O)c4ccccc4)C3)C2)o1`, with 24.3%.

On to `Cc1oncc1C(=O)N1CC2CC1(C(=O)N(C)C)C2`, for which the cytotoxicity at 70.5 h is -6.15%. In the case of `COCCC(=O)N1CCCC2(CCN(c3ccccc3)C2=O)C1` (stereo unspecified), the cytotoxicity at 70.5 h is -11%. Take `CS(=O)(=O)N[C@@H]1COC[C@@H]2CN(Cc3ccoc3)C[C@@H]21`: the cytotoxicity at 70.5 h was -11.6%. Then `CN(C)C(=O)N1Cc2ccccc2C2(CCNCC2)C1`, with 28.5%. Then `CC(C)N1CCC2(CCNCC2)C1=O`, with -13%; and `O=C(C1CCCC1)N1CCCC2(CCN(c3cnccn3)CC2)C1`, with -8.23%. Then `CC(C)C(=O)N1CC2(CCN(CC(C)(C)C)CC2)C1`, with 47.3%; and `CN(C)CCN1C[C@@H]2CN(S(=O)(=O)c3cccs3)C[C@@H]2C1=O`, with -10.9%; and `CCN1C[C@@H]2CN(Cc3cccs3)C[C@@H]2C1=O`, with -10.6%. Take `CCN1CC[C@@]2(C(=O)N(C)C)CCN(S(=O)(=O)c3ccccc3)CC[C@@H]12`: the cytotoxicity at 70.5 h is -9.93%.

Consider `CCS(=O)(=O)N1CCC2(CCN(Cc3cccc(OC)c3)CC2)CC1`, for which the cytotoxicity at 70.5 h was -2.06%. In the case of `CN1CCOC2(CCCN(C(=O)C3CCCCC3)C2)C1` (stereo unspecified), the cytotoxicity at 70.5 h stood at 34.5%. With `N#Cc1ccc(C(=O)N2CC[C@H]3[C@H]2CCN3CC2CCOCC2)cc1` the figure was 12.2%; with `N#Cc1cccc(C(=O)N2CC[C@H]3[C@H]2CCN3CC2CC2)c1`, 19.2%; with `Cc1nn(C)c(C)c1S(=O)(=O)N1C[C@@H]2C[C@@H](C)O[C@@H]2C1`, -9.76%.

Turning to `O=C(c1cccc(F)c1)N1C[C@H]2CN(Cc3ccccn3)C[C@H]2C1`, the cytotoxicity at 70.5 h is -16%. Consider `COCCN1C[C@@H]2CN(Cc3ccc(F)cc3)C[C@@H]2C1=O`, for which the cytotoxicity at 70.5 h was -9.05%.

For `COCCN1CC[C@H]2CN(Cc3ccc(C)s3)C[C@@H]2C1=O`, the cytotoxicity at 70.5 h was -9.57%. Then `COc1ccc(CC(=O)N2C[C@H]3CN(Cc4ccccn4)C[C@H]3C2)cc1`, with -3.26%; and `Cc1nn(C)c(C)c1S(=O)(=O)N1CC[C@H]2O[C@@H](C)C[C@H]2C1`, with -8.7%; and `CCc1ccc(CN2C[C@@H](C)C3(CCN(CC(=O)N(C)C)C3=O)C2)o1` (stereo partly specified), with -6.86%. With `O=C(c1c[nH]cn1)N1CCOCC2(C1)CN(c1ccccc1)C(=O)CO2` (stereo unspecified), the cytotoxicity at 70.5 h was -13.7%. Regarding `c1cc2c(cc1CN1CC[C@H]3[C@H]1CCN3CC1CC1)OCO2`, the cytotoxicity at 70.5 h is -1.51%. Take `CC(C)N1CCc2[nH]nc(C(=O)N3CCOCC3)c2C1`: the cytotoxicity at 70.5 h was -12.9%. In the case of `O=C(NCC1CC1)c1n[nH]c2c1CNCC2`, the cytotoxicity at 70.5 h is -10.7%. As to `Cc1ccc(CN2C[C@@H]3CCN(Cc4cccnc4)C(=O)[C@H]3C2)s1`, the cytotoxicity at 70.5 h was determined as 14.5%. Then `CC1c2ncc(CNC(=O)C3CC3)n2CCN1Cc1cccnc1` (stereo unspecified), with -5.38%; and `CC(C)N1CCc2[nH]nc(C(=O)N3CCN(C)CC3)c2C1`, with -1.5%; and `Cc1cccnc1N1CC2(CCN(Cc3cccnc3)C2)C1`, with 16.3%.

These data come from ChEMBL document CHEMBL3507680, “University of Dundee, Gates Library screen for HepG2 cell viability”.
